What is called IC50 is the concentration needed to halve the response being measured.

The target of one test is human erythrocyte AChE (Homo sapiens, UniProt P22303). Briefly: biochemical. It counts as biochemical.
The target of another test is plasma BChE (Homo sapiens, UniProt P06276). Description: biochemical.
Another test concerns neuromuscular AChR. To be noted: cited from earlier work.

SMILES strings stand for the structures. Read-outs that look alike come from different tables or passages of the source.

Sequence of plasma BChE (P06276 29-602): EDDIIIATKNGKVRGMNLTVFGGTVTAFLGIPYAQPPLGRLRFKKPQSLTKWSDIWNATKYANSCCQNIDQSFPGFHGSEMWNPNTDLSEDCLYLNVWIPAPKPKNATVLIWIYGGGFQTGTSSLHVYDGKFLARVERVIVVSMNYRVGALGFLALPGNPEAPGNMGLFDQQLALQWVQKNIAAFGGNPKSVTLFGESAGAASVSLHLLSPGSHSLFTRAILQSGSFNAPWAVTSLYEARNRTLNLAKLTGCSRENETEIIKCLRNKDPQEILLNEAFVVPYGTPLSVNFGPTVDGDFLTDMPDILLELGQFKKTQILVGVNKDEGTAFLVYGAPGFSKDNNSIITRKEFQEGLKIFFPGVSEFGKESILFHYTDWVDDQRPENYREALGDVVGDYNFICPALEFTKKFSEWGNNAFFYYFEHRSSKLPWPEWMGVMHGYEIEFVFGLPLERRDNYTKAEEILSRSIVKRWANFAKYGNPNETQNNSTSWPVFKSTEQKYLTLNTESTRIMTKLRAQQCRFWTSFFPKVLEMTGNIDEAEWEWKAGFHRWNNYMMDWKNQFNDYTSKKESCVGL
Sequence of human erythrocyte AChE (P22303-2 with tags, fused parts or gaps limits assumed): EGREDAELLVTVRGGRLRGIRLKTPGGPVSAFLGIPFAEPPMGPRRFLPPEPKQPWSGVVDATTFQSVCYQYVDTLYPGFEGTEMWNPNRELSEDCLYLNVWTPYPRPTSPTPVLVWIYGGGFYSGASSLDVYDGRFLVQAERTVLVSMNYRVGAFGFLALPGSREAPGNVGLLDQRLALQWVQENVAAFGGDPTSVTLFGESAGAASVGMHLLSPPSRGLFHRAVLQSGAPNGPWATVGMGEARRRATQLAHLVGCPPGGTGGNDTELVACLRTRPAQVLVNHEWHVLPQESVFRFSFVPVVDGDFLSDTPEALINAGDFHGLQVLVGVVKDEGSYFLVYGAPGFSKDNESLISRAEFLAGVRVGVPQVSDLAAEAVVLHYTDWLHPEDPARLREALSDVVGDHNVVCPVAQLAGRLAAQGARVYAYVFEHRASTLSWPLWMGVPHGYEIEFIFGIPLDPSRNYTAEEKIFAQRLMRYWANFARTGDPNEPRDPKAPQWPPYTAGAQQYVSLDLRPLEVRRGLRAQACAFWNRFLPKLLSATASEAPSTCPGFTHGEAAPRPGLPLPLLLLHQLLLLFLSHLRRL

For the compound `CNC(=O)Oc1ccc2c(c1)[C@]1(C)CCO[C@@H]1N2C` [(3) (-)-physovenine, (-)-physovenine, reference compound], at human erythrocyte AChE, the “enzyme selectivity / preference (AChE vs BChE), in words” value (shortened to “enzyme selectivity / preference”) is “inhibited AChE and BChE in vitro similarly at similar concentrations”. The IC50 at human erythrocyte AChE (pH 8, read-out: AChE IC50) came to 27.1 ± 0.8 nM; against plasma BChE, 3.5 ± 1.4 nM.
Take `CN1c2ccc(OC(=O)Nc3ccccc3)cc2[C@]2(C)CCO[C@H]12` [Ex. 22, phenylcarbamate of (-)-physovenol]: on human erythrocyte AChE, the “enzyme selectivity / preference” value is listed as “high preference for Ache”. Moreover, the results for the IC50 on human erythrocyte AChE (AChE IC50), on human erythrocyte AChE (IC50 for AChE) and against plasma BChE were 11.2 ± 2.1 nM, 11 nM and 700 ± 37 nM, respectively.
Take `Cc1ccc(NC(=O)Oc2ccc3c(c2)[C@]2(C)CCN(C)[C@@H]2N3C)c(C)c1` [Ex. 8, (-)-2'-4'-dimethylphenylcarbamoyleseroline]: the IC50 at human erythrocyte AChE was 13.6 ± 1 nM; on plasma BChE (pH 8, read-out: BChE IC50), 1820 ± 558 nM.
As for `CNC(=O)Oc1ccc2c(c1)[C@]1(C)CCN(C)[C@@H]1N2C` [(1) (-)-physostigmne, (-)-physostigmine], in the test with neuromuscular AChR, the “properties at the neuromuscular AChR, in words” value is listed as “blocking properties as well as agonist properties at the neuromuscular AChR”.
For `CC(C)c1ccc(NC(=O)Oc2ccc3c(c2)[C@]2(C)CCO[C@@H]2N3C)cc1` [compound 24], the “enzyme selectivity / preference” value at human erythrocyte AChE is listed as “reverse enzyme specificity”. Also, the IC50 at human erythrocyte AChE (read-out: IC50 for AChE) stood at 3800 nM; on plasma BChE (read-out: IC50 for BChE (printed once as RChE)), 16.5 nM.
In the case of `Cc1ccccc1NC(=O)Oc1ccc2c(c1)[C@]1(C)CCO[C@@H]1N2C` [Ex. 23, (-)-5-O-(2'-Methylphenylcarbamoyl)physovenol], the IC50 on human erythrocyte AChE (pH 8, read-out: AChE IC50) came out at 12.9 ± 0.8 nM; on plasma BChE (pH 8, read-out: BChE IC50), 1560 ± 120 nM.
With `Cc1ccccc1NC(=O)Oc1ccc2c(c1)[C@]1(C)CCN(C)[C@@H]1N2C` [Ex. 7, (-)-2'-Methylphenylcarbamoyleseroline], on human erythrocyte AChE (pH 8, read-out: AChE IC50), the IC50 stood at 10.3 ± 1.6 nM.
Turning to `Cc1ccc(NC(=O)Oc2ccc3c(c2)[C@]2(C)CCN(C)[C@@H]2N3C)cc1` [Ex. 10, (-)-4'-methylphenylarbamoyleseroline], the IC50 at human erythrocyte AChE (pH 8, read-out: AChE IC50) came to 139 ± 3.7 nM; on plasma BChE (pH 8, read-out: BChE IC50) it was 251 ± 8.6 nM.
As to `CN1CC[C@@]2(C)c3cc(OC(=O)Nc4ccccc4Cl)ccc3N(C)[C@@H]12` [Ex. 17, (-)-2'-chlorophenylcarbamoyleseroline], the IC50 at human erythrocyte AChE came to 496 ± 28.2 nM; on plasma BChE it was 1610 ± 86.4 nM.
For the compound `Cc1cc(C)c(NC(=O)Oc2ccc3c(c2)[C@]2(C)CCN(C)[C@@H]2N3C)c(C)c1` [Ex. 15, (-)-(-)-2',4',6'-trimethylphenylcarbamoyleseroline], the IC50 at human erythrocyte AChE (pH 8, read-out: AChE IC50) amounted to 1290 ± 73.8 nM; at plasma BChE (pH 8, read-out: BChE IC50) it was 3290 ± 885 nM.
Regarding `CCc1cccc(CC)c1NC(=O)Oc1ccc2c(c1)[C@]1(C)CCN(C)[C@@H]1N2C` [Ex. 11, (-)-2',6-diethylphenylcarbamoylescroline], the IC50 was 1490 ± 49.8 nM at human erythrocyte AChE (pH 8, read-out: AChE IC50) and 1070 ± 48 nM against plasma BChE.
Turning to `CCc1ccccc1NC(=O)Oc1ccc2c(c1)[C@]1(C)CCN(C)[C@@H]1N2C` [Ex. 12, (-)-2'-ethylphenylcarbamoyleseroline], the IC50 at human erythrocyte AChE stood at 9.7 ± 0.1 nM; on plasma BChE (pH 8, read-out: BChE IC50), 2920 ± 537 nM.
In the case of `CN1CC[C@@]2(C)c3cc(OC(=O)Nc4c(Cl)cccc4Cl)ccc3N(C)[C@@H]12` [Ex. 18, (-)-2',6'-dichlorophenylcarbamoylseroline], the figures for the IC50 against human erythrocyte AChE and on plasma BChE were 66.6 ± 1.8 nM and 425 ± 86.4 nM, respectively.
Take `CN1CC[C@@]2(C)c3cc(OC(=O)Nc4ccccc4)ccc3N(C)[C@@H]12` [Ex. 14, (-)-phenylcarbamoyleserolne]: at human erythrocyte AChE (human), the “lower concentration for inhibition of AChE than of BChE” value turned out to be 50 times.

Values taken from patent publication US5171750A (priority 1991, dated 1992).
